Test system: creeping bentgrass
Experiment: Experiment No. 1: growth chamber pot trial, foliar GB and choline under heat and mild drought stress
Type: in vivo
Conditions: for increase of chlorophyll content: day 56, vs control; for Root Viability: TTC method
Procedure: A growth chamber pot trial was conducted as follows. […] The choline used in this study was supplied in the form of choline chloride from Sigma-Aldrich, Inc. (St. Louis, MO). […] These conditions simulated summer putting green stress. The treatments were as follows: • 1. […] GB at 0.5 oz./1,000 ft^2 every 14 days. • 3. GB at 1.0 oz./1,000 ft^2 every 14 days. • 4. […] The rate and source of fertilization for treatments #2-7 was the same as treatment #1 (fertilized control), so all seven treatments received identical fertility input. […] The term “low rate” is used in this description of Experiment No. 1 to refer to 0.5 oz./1,000 ft^2 treatments, while the term “high rate” is used to refer to 1.0 oz./1,000 ft^2 treatments. […] Photochemical efficiency (PE). Photochemical Efficiency was measured with a chlorophyll fluorometer (OS-50II, Opti-Sciences, Inc., Hudson, NH) biweekly based on the Fv/Fm, which is the ratio of variable chlorophyll fluorescence (Fv) to maximum chlorophyll fluorescence (Fm). […] Chlorophyll content. After clipping yields were weighed, leaf tissues were ground into powder, and chlorophyll was extracted in pure acetone content for 72 hours, and the absorbance was measured using a spectrophotometer. • e. Leaf carotenoids were extracted in the same sample as for chlorophyll content and carotenoids were measured using a spectrophotometer (Zhang et al., 2005). • f. Leaf proline content. […] After centrifuging, the supernatant was collected, and proline was analyzed according to Wu et al., 2017. • g. Root viability. […] Root growth characteristics. At the end of trial, roots from each pot were washed and cleaned. Roots were scanned using WinRHIZOTM technology (Regent Instruments Inc., Quebec, Canada), and root length, root surface area, root diameter, and root volume were calculated. (Zhang et al., 2017). • i. Root biomass of each pot was determined at the end of the trial. Roots were dried at 65° C. for 72 hours before being weighed.

SMILES: C[N+](C)(C)CCO.[Cl-] [Choline, choline chloride]
- increase of chlorophyll content (0.5 oz): 32.4%
- Clippings dry wt (0.5 oz/1000 ft^2, Total): 0.691bc g/pot
- Carotenoids (0.5 oz/1000 ft^2, day 0): 1.32a mg/g FW
- Chlorophyll (0.5 oz/1000 ft^2, day 0): 3.50a mg/g FW
- Leaf color (1-9, 9 = dark green) (0.5 oz/1000 ft^2, day 0): 7.5a
- PE (Fv/Fm) (0.5 oz/1000 ft^2, day 0): 0.763a
- Proline (0.5 oz/1000 ft^2, day 0): 20.1a mg/g FW
- Carotenoids (0.5 oz/1000 ft^2, day 14): 1.32a mg/g FW
- Chlorophyll (0.5 oz/1000 ft^2, day 14): 3.51a mg/g FW
- Clippings dry wt (0.5 oz/1000 ft^2, day 14): 0.149b g/pot
- Leaf color (1-9, 9 = dark green) (0.5 oz/1000 ft^2, day 14): 7.3abc
- PE (Fv/Fm) (0.5 oz/1000 ft^2, day 14): 0.751a
- Proline (0.5 oz/1000 ft^2, day 14): 46.1a mg/g FW
- Carotenoids (0.5 oz/1000 ft^2, day 28): 1.18ab mg/g FW
- Chlorophyll (0.5 oz/1000 ft^2, day 28): 3.09ab mg/g FW
- Clippings dry wt (0.5 oz/1000 ft^2, day 28): 0.151b g/pot
- Leaf color (1-9, 9 = dark green) (0.5 oz/1000 ft^2, day 28): 6.9a
- PE (Fv/Fm) (0.5 oz/1000 ft^2, day 28): 0.676ab
- Proline (0.5 oz/1000 ft^2, day 28): 24.3b mg/g FW
- Carotenoids (0.5 oz/1000 ft^2, day 42): 1.12a mg/g FW
- Chlorophyll (0.5 oz/1000 ft^2, day 42): 2.76ab mg/g FW
- Clippings dry wt (0.5 oz/1000 ft^2, day 42): 0.159a g/pot
- Leaf color (1-9, 9 = dark green) (0.5 oz/1000 ft^2, day 42): 7.1a
- PE (Fv/Fm) (0.5 oz/1000 ft^2, day 42): 0.631b
- Proline (0.5 oz/1000 ft^2, day 42): 30.2c mg/g FW
- Carotenoids (0.5 oz/1000 ft^2, day 56): 1.12a mg/g FW
- Chlorophyll (0.5 oz/1000 ft^2, day 56): 2.98a mg/g FW
- Clippings dry wt (0.5 oz/1000 ft^2, day 56): 0.233ab g/pot
- Leaf color (1-9, 9 = dark green) (0.5 oz/1000 ft^2, day 56): 7.0a
- PE (Fv/Fm) (0.5 oz/1000 ft^2, day 56): 0.649a
- Proline (0.5 oz/1000 ft^2, day 56): 79.6a mg/g FW
- Root Biomass (0.5 oz/1000 ft^2, end of trial): 1.72ab g/pot
- Root Diameter (0.5 oz/1000 ft^2, end of trial): 0.192a mm
- Root Length (0.5 oz/1000 ft^2, end of trial): 39.7ab mm/cm^3
- Root SA (surface area) (0.5 oz/1000 ft^2, end of trial): 2.40ab cm^3/cm^3
- Root Volume (0.5 oz/1000 ft^2, end of trial): 11.6a dm^3/cm^3
- Root Viability (0.5 oz/1000 ft^2, end of trial): 0.739bcd A490/g FW
- increase of chlorophyll content (1.0 oz): 22.2%
- Clippings dry wt (1.0 oz/1000 ft^2, Total): 0.842ab g/pot
- Carotenoids (1.0 oz/1000 ft^2, day 0): 1.31a mg/g FW
- Chlorophyll (1.0 oz/1000 ft^2, day 0): 3.46a mg/g FW
- Leaf color (1-9, 9 = dark green) (1.0 oz/1000 ft^2, day 0): 7.5a
- PE (Fv/Fm) (1.0 oz/1000 ft^2, day 0): 0.777a
- Proline (1.0 oz/1000 ft^2, day 0): 19.8a mg/g FW
- Carotenoids (1.0 oz/1000 ft^2, day 14): 1.33a mg/g FW
- Chlorophyll (1.0 oz/1000 ft^2, day 14): 3.51a mg/g FW
- Clippings dry wt (1.0 oz/1000 ft^2, day 14): 0.187ab g/pot
- Leaf color (1-9, 9 = dark green) (1.0 oz/1000 ft^2, day 14): 7.5a
- PE (Fv/Fm) (1.0 oz/1000 ft^2, day 14): 0.738ab
- Proline (1.0 oz/1000 ft^2, day 14): 43.5ab mg/g FW
- Carotenoids (1.0 oz/1000 ft^2, day 28): 1.23a mg/g FW
- Chlorophyll (1.0 oz/1000 ft^2, day 28): 3.31a mg/g FW
- Clippings dry wt (1.0 oz/1000 ft^2, day 28): 0.183ab g/pot
- Leaf color (1-9, 9 = dark green) (1.0 oz/1000 ft^2, day 28): 7.3a
- PE (Fv/Fm) (1.0 oz/1000 ft^2, day 28): 0.718ab
- Proline (1.0 oz/1000 ft^2, day 28): 24.6b mg/g FW
- Carotenoids (1.0 oz/1000 ft^2, day 42): 1.17a mg/g FW
- Chlorophyll (1.0 oz/1000 ft^2, day 42): 2.93a mg/g FW
- Clippings dry wt (1.0 oz/1000 ft^2, day 42): 0.223a g/pot
- Leaf color (1-9, 9 = dark green) (1.0 oz/1000 ft^2, day 42): 7.1a
- PE (Fv/Fm) (1.0 oz/1000 ft^2, day 42): 0.683ab
- Proline (1.0 oz/1000 ft^2, day 42): 43.8ab mg/g FW
- Carotenoids (1.0 oz/1000 ft^2, day 56): 1.06a mg/g FW
- Chlorophyll (1.0 oz/1000 ft^2, day 56): 2.75ab mg/g FW
- Clippings dry wt (1.0 oz/1000 ft^2, day 56): 0.249a g/pot
- Leaf color (1-9, 9 = dark green) (1.0 oz/1000 ft^2, day 56): 7.0a
- PE (Fv/Fm) (1.0 oz/1000 ft^2, day 56): 0.664a
- Proline (1.0 oz/1000 ft^2, day 56): 67.6a mg/g FW
- Root Biomass (1 oz/1000 ft^2, end of trial): 1.57ab g/pot
- Root Diameter (1 oz/1000 ft^2, end of trial): 0.192a mm
- Root Length (1 oz/1000 ft^2, end of trial): 39.0ab mm/cm^3
- Root SA (surface area) (1 oz/1000 ft^2, end of trial): 2.32ab cm^3/cm^3
- Root Volume (1 oz/1000 ft^2, end of trial): 11.0a dm^3/cm^3
- Root Viability (1 oz/1000 ft^2, end of trial): 1.019abc A490/g FW

From US20250151724A1, “Liquid Soil Treatments Containing Choline” (Harrell's, LLC, priority 2023, published 2025)
